Measured values taken from patent EP0306300B1, “Pyrrolo(1,2-a)imidazole and imidazo(1,2-a)pyridine derivatives and their use as 5-lipoxygenase pathway inhibitors” (SMITHKLINE BEECHAM CORPORATION, priority 1987, dated 1989).
Where two headings read alike, the source gives them in different places.

Assays:
[1] = system: Eicosanoid Production in Human Whole Blood; assay: Inhibition of eicosanoid production following calcium ionophore stimulation in human whole blood; format: cell-based; conditions: human blood stimulated with calcium ionophore
Description: The eicosanoids, which include the 5-lipoxygenase products LTB , transLTB₄, 20-hydroxyLTB₄, 5-HETE, and the 12-lipoxygenase product are extracted from the whole blood following A23187 calcium ionophore stimulation. The extracts are separated by reverse phase high pressure liquid chromatography and quantified by absorbance methods.
Venous human blood is collected into polypropylene tubes containing 1% heparin. The blood is then aliquoted into 4.5 ml volumes and preincubated at 37°C for 10 minutes in polypropylene tubes (15 ml size). Compound or carrier (50 »L dimethylsulfoxide) is added 5 minutes prior to stimulation. Calcium ionophore (0.5ml) is added, and the blood incubated for 10 minutes. Prostaglancin B₂(1 nmole) is added, and the blood extracted as described below.
The samples are centrifuged at 1000xg for 15 minutes at 5°C. The plasma is collected, and one volume of methanol is added to the plasma. This suspension is then centrifuged at 1000xg for ten minutes at 5°C. The supernatant is collected and diluted with 1.5 volumes of chilled aqueous 1% formic acid: 1% triethylamine. This mixture is loaded onto a preconditioned J.T. Baker C18 SPE cartridge (Phillipsburg, NJ) at a flow rate of 1-2 ml/minute. (The cartridge is preconditioned according to manufacture's recommendations.) The absorbed sample is washed in the following order with three (3) ml each of (i) aqueous 1% formic acid: 1% triethylamine; (ii) petroleium ether; and (iii) 20% acetonitrile: 1% triethylamine.
The eicosanoids are eluted in 3ml of 70% acetonitrile: 1% triethylamine. The solvent is removed under vacuum. The sample is resuspended in 200»L of 50% methanol buffered with ammonium acetate.
The sample (175 »l) is loaded into a WATERS (Milbord, MA) RCM NOVA PAK C18 (100x8mm) column with the starting mobile phase of 90% A (A = 10% acetonitrile buffered with 30mM ammonium acetate to pH6.8) and 10% B (B = 90% acetonitrile buffered with 30mM ammonium acetate to pH6.8). The flow rate for the separation is 2.5ml/minute. At one minute the %B is increased to 27% in a step fashion. By 12 minutes the %B has increased in a concave hyperbolic function (curve 9) to 40% and increases in a linear manner to 60% by 22 minutes. Under these developing conditions, the retention times for the eicosanoids are: 20-hydroxyLTB₄, 4.6 minutes; transLTB₄, 10 minutes; LTB₄, 10.5 minutes; 12-HETE, 10.4 minutes; 5-HETE, 21 minutes. The HPLC system consisted of WATERS 510 pumps, 840 controller, WISP injector and 990 detector.
The eicosanoids in the samples are verified by their retention times and their UV absorbance spectra. The peaks are quantified with reference to the internal standard and their absorbance response at their maximum absorbance wavelength.

[2] = system: cynomolgus monkeys; assay: CNS activity / oral toxicity in cynomolgus monkeys; conditions: cynomolgus monkey, in vivo
Description: Additional monkeys tolerated repeated doses of 45 mg/kg or 30 mg/kg and one animal tolerated an escalating dose schedule of 30-90-120 mg/kg.
The two monkeys administered 400 mg/kg were repeatedly administered this dose for 7 consecutive days; each animal experienced emesis within 1 to 5 hours of dosing after the 1st, 3rd and 4th doses, whereas only the female experienced emesis after the 5th, 6th and 7th doses. A complete necropsy, serum clinical chemistry, hematology and histological examination was completed on both monkeys.

[3] = system: arachidonic acid-induced edema in mice; assay: Arachidonic acid-induced mouse ear inflammation (ear swelling); format: in vivo, male Balb/c mice; conditions: 1 h, 50 mg/kg s.c. or i.p., ear thickness one hour after 2 mg arachidonic acid
[4] = Cytochrome P-450 inhibition (ethoxycoumarin-O-deethylase activity, phenobarbital-induced microsomes); conditions: rat, liver microsomes
[5] = In vivo metabolism (statement only)
[6] = 5-HETE, read-out: 5-LO, IC50 (uM) 5-HETE
[7] = 12-HETE, read-out: 5-LO, IC50 (uM) 12-HETE
[8] = LTB4, read-out: 5-LO, IC50 (uM) LTB4
[9] = tLTB4, read-out: 5-LO, IC50 (uM) tLTB4

| Structure (SMILES) | IC50 [1, 6] [µM] | IC50 [1, 7] [µM] | IC50 ([1]; 20-OH-LTR4, read-out: 5-LO, IC50 (uM) 20-OH-LTR4) [µM] | IC50 [1, 8] [µM] | IC50 [1, 9] [µM] | Adverse CNS activity [2] | CNS toxicity / adverse CNS effects (comparative statement) [2] | inhibition at 50 mg/kg [3] [%] | IC50 [4] [µM] | metabolism in vivo [5] |
| --- | --- | --- | --- | --- | --- | --- | --- | --- | --- | --- |
| CSc1ccc(-c2nc3n(c2-c2ccncc2)CCC3)cc1 [Compound 1, 2-(4-Methylthiophenyl)-3-(4-pyridyl)-6,7-dihydro-[5H]-pyrrolo[1,2-a]imidazole] | 30 | 60 | 30 | 30 | 30 | + | less CNS toxicity than prior art compound A | 62 | 43.7 |  |
| C[S+]([O-])c1ccc(-c2nc3n(c2-c2ccncc2)CCC3)cc1 (stereo not drawn) [Compound 2, 2-(4-Methylsulfinylphenyl)-3-(4-pyridyl)-6,7-dihydro-[5H]-pyrrolo[1,2-a]imidazole] | 80 | 80 |  | 80 | 80 |  |  |  | 866 | metabolized in vivo to compound D |
